From ChEMBL document CHEMBL1649094, “First Selective CYP11B1 Inhibitors for the Treatment of Cortisol-Dependent Diseases” (ACS Med Chem Lett, 2011)

How the values were obtained:
CYP19 (aromatase) = biological target: T1, CYP19 (aromatase) (Homo sapiens, UniProt P11511); assay: (§1) Inhibition of human placental microsomes CYP19 at 500 nM using androstenedione substrate; settings: human placental microsomes, probe androstenedione
T1 sequence (P11511 whole entry): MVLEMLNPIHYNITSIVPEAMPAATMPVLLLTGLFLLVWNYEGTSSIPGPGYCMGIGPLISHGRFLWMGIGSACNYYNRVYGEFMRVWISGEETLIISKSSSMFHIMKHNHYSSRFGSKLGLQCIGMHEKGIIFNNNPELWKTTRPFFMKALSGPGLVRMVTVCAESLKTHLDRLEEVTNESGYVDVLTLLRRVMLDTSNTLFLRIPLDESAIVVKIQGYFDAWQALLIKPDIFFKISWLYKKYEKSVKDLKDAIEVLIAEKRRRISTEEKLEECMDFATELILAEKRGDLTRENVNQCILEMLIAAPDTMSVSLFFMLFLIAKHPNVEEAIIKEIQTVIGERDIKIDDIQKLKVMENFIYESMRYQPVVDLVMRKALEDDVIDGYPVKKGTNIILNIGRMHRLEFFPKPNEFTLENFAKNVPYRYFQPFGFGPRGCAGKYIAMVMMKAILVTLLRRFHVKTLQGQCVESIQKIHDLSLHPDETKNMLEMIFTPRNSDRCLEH

[1] = biological target: T2, Steroid 17-alpha-hydroxylase/17,20 lyase (Homo sapiens, UniProt P05093); assay: (§2) Inhibition of human recombinant CYP17 expressed in Escherichia coli at 2 uM using progesterone substrate; settings: 2 µM
T2 sequence (P05093 whole entry): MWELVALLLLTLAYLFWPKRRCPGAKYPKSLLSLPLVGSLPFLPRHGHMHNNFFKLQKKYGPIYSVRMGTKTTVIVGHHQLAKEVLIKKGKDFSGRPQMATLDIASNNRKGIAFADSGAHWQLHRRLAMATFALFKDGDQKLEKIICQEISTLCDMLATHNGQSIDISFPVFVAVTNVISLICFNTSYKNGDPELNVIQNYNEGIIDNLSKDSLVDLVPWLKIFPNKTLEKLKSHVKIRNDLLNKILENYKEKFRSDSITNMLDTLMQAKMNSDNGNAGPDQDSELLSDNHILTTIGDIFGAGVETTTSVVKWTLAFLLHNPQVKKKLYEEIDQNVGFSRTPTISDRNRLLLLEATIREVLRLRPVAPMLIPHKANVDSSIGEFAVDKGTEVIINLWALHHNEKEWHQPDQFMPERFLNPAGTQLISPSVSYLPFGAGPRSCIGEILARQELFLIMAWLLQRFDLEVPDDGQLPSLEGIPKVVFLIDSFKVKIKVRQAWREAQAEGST

[2] = biological target: T3, Cytochrome P450 11B1, mitochondrial (Homo sapiens, UniProt P15538); assay: Inhibition of human CYP11B1 expressed in hamster V79MZ cells using 11-deoxycorticosterone substrate; assay type: cell-based
T3 sequence (P15538 whole entry): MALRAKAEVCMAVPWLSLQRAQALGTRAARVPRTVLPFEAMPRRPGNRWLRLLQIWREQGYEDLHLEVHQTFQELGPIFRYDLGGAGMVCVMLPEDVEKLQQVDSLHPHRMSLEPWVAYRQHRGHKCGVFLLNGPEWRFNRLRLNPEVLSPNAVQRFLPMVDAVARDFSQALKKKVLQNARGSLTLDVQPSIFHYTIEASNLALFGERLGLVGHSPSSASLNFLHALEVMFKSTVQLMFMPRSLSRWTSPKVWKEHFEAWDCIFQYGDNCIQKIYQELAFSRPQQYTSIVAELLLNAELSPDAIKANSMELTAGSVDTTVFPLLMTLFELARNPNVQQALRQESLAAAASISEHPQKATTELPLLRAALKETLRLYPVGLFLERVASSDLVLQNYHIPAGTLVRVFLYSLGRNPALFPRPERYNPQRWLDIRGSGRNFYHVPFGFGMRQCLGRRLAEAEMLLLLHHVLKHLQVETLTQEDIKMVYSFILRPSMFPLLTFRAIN

[3] = biological target: T4, Cytochrome P450 11B2, mitochondrial (Homo sapiens, UniProt P19099); assay: Inhibition of human CYP11B2 expressed in hamster V79MZ cells using 11-deoxycorticosterone substrate; assay type: cell-based
T4 sequence (P19099 whole entry): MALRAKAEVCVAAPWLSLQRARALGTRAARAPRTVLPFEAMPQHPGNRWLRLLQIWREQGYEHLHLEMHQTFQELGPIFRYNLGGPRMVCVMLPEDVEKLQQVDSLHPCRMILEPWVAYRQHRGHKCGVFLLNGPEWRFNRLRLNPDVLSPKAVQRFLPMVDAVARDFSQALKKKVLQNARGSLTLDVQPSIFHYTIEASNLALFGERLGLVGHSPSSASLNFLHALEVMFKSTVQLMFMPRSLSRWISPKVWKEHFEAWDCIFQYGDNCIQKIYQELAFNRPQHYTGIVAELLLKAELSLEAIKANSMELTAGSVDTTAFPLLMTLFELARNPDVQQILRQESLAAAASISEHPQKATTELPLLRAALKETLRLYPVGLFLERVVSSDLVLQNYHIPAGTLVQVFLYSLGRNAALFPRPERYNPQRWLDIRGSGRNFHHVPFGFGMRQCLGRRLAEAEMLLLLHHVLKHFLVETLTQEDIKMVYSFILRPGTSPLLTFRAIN

Homo sapiens = organism: Homo sapiens; assay: Selectivity index, ratio of IC50 for human CYP11B2 to IC50 for human CYP11B1
Aromatase = biological target: T5, Aromatase (Homo sapiens, UniProt P11511); assay: as §1; settings: 0.5 µM
T5 sequence (P11511 whole entry): T1 sequence (P11511 whole entry)

CYP17 = biological target: T6, CYP17 (Homo sapiens, UniProt P05093); assay: as §2; settings: recombinant human CYP17 expressed in Escherichia coli, probe progesterone
T6 sequence (P05093 whole entry): T2 sequence (P05093 whole entry)

Row | Structure (SMILES) | inhibition at 0.5 µM (CYP19 (aromatase)) | inhibition (INH) [1] | IC50 [2] | IC50 [3] | Ratio IC50 (Homo sapiens) | inhibition (INH) (Aromatase) | inhibition at 2 µM (CYP17)
1 | Cc1cccc(Cn2ccnc2)c1 | 12% | Not Active | 48 nM | 110 nM | 2.3 |  | 
2 | c1cn(CC23CC4CC(CC(C4)C2)C3)cn1 | 12% |  | 5 nM | 30 nM | 5.9 |  | 
3 | c1ccc(Cn2cnc3ccccc32)cc1 |  | Not Active | 246 nM | 865 nM | 3.5 | Not Active | 
4 | CCOC(=O)c1cncn1[C@H](C)c1ccccc1 [ETOMIDATE] |  | Not Active |  | 0.1 nM | 0.5 | Not Active | 
5 | Cc1cc(C)c(Cn2ccnc2)c(C)c1 |  | Not Active | 24 nM | 30 nM | 1.3 | Not Active | 
6 | Cc1cccc(Cn2cnc3ccccc32)c1 |  | Not Active | 194 nM | 309 nM | 1.6 | Not Active | 
7 | Cc1cc(C)cc(Cn2cnc3ccccc32)c1 |  | Not Active | 188 nM | 632 nM | 3.4 | Not Active | 
8 | c1ccc(C(Cn2cnc3ccccc32)(c2ccccc2)c2ccccc2)cc1 |  | Not Active | > 1000 nM | > 1000 nM |  | Not Active | 
9 | Cc1c(C)c(C)c(Cn2ccnc2)c(C)c1C | 12% | Not Active | 5 nM | 23 nM | 4.6 |  | 
10 | Cc1ccccc1Cn1ccnc1 | 12% | Not Active | 61 nM | 62 nM | 1 |  | 
11 | c1ccc(-c2cc(Cn3cnc4ccccc43)cc(-c3ccccc3)c2)cc1 |  | Not Active | > 1000 nM | > 1000 nM |  | Not Active | 
12 | c1ccc(C(Cn2ccnc2)(c2ccccc2)c2ccccc2)cc1 | 38% | Not Active | 4 nM | 8 nM | 2 |  | 
13 | c1ccc(Cn2ccnc2)cc1 |  | Not Active | 135 nM | 456 nM | 3.4 | Not Active | 
14 | c1ccc(-c2cccc(Cn3cnc4ccccc43)c2)cc1 |  | Not Active | 369 nM | 2230 nM | 6 | Not Active | 
15 | c1ccc(C(c2ccccc2)(c2ccccc2)n2cnc3ccccc32)cc1 |  | Not Active | > 1000 nM | > 1000 nM |  | Not Active | 
16 | c1ccc(-c2ccccc2Cn2ccnc2)cc1 | 38% | Not Active | 15 nM | 39 nM | 2.6 |  | 
17 | Cc1ccc(Cn2ccnc2)cc1 |  | Not Active | 258 nM | 320 nM | 1.2 | Not Active | 
18 | Clc1ccc(Cn2ccnc2)cc1 |  | Not Active | 140 nM | 46 nM | 0.3 | Not Active | 

Row | Structure (SMILES) | inhibition at 0.5 µM (CYP19 (aromatase)) | inhibition (INH) [1] | IC50 [2] | IC50 [3] | Ratio IC50 (Homo sapiens) | inhibition (INH) (Aromatase) | inhibition at 2 µM (CYP17)
19 | c1ccc(C(c2ccccc2)(c2ccccc2)n2ccnc2)cc1 | 38% | Not Active | 3 nM | 11 nM | 3.4 |  | 
20 | Cc1cc(C)cc(Cn2ccnc2)c1 | 38% | Not Active | 32 nM | 77 nM | 2.4 |  | 
21 | Clc1ccc(Cn2cnc3ccccc32)cc1 |  | Not Active | 635 nM | 107 nM | 0.2 | Not Active | 
22 | c1ccc(-c2cccc(Cn3ccnc3)c2)cc1 | 38% | Not Active | 46 nM | 265 nM | 5.8 |  | 
23 | Cc1cc(C)c(Cn2cnc3ccccc32)c(C)c1 |  | Not Active | > 1000 nM | > 1000 nM |  | Not Active | 
24 | CC(C)(C(=O)c1cccnc1)c1cccnc1 [METYRAPONE] |  | Not Active |  |  |  | Not Active | 
25 | c1ccc(-c2ccc(Cn3ccnc3)cc2)cc1 | 5% |  | 32 nM | 637 nM | 20 |  | 40%
26 | c1ccc2c(c1)ncn2CC12CC3CC(CC(C3)C1)C2 | 12% | Not Active | 75 nM |  |  |  | 
27 | c1ccc(-c2ccccc2Cn2cnc3ccccc32)cc1 |  | Not Active | > 1000 nM | > 1000 nM |  | Not Active | 
28 | c1ccc(-c2ccc(Cn3ccnc3)o2)cc1 | 38% |  | 46 nM | 372 nM | 8.1 |  | 0%
29 | Cc1ccccc1Cn1cnc2ccccc21 |  | Not Active | 779 nM | 262 nM | 0.3 | Not Active | 
30 | c1ccc(-c2csc(Cn3ccnc3)c2)cc1 | 72% |  | 19 nM | 277 nM | 15 |  | 
31 | c1ccc(-c2ccc(Cn3cnc4ccccc43)cc2)cc1 |  | Not Active | 197 nM | 1900 nM | 10 | Not Active | 
32 | Cc1ccc(Cn2cnc3ccccc32)cc1 |  | Not Active | 500 nM | 520 nM | 1 | Not Active | 
33 | c1ccc(C(CCn2ccnc2)(c2ccccc2)c2ccccc2)cc1 | 38% | Not Active | 80 nM | 290 nM | 3.6 |  | 
34 | c1ccc(C(CCn2cnc3ccccc32)(c2ccccc2)c2ccccc2)cc1 |  | Not Active | > 1000 nM | > 1000 nM |  | Not Active | 
35 | c1ccc(-c2ccc(Cn3ccnc3)cn2)cc1 | 0% |  |  |  | 18 |  | 
36 | Cc1c(C)c(C)c(Cn2cnc3ccccc32)c(C)c1C |  | Not Active | > 1000 nM | > 1000 nM |  | Not Active | 
